This passage reports IC50 results from patent US5972942A, “Inhibitors of farnesyl-protein transferase” (Merck & Co., Inc., priority 1997, dated 1999).

The experiment deals with T1, human FPTase (Homo sapiens, UniProt P49354+P49356).
T1 construct: made in house
Briefly: In vitro inhibition of ras farnesyl transferase (human FPTase assay). In kind it is biochemical. The following applies: 100 nM Ras-CVIM, [3H]-farnesyl diphosphate, 30 min, read-out: IC50, inhibitory activity against human FPTase.

Counter-ions that a name gives are not always drawn.

T1 sequence (P49356 whole entry, one chain of several): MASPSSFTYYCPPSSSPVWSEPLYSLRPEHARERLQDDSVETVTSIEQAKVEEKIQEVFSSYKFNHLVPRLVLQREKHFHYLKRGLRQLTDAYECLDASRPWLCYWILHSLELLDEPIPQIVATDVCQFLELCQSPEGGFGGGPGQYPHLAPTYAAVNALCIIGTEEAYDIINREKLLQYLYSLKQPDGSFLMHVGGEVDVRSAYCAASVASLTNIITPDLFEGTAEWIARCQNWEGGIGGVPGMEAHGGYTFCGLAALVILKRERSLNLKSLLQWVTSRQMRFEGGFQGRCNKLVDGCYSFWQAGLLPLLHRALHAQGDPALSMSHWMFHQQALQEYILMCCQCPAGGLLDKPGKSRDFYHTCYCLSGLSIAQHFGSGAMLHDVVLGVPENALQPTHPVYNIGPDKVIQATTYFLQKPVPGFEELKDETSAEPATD

`CCCC[C@H]1CN(CC(F)(F)F)C(=O)CN1Cc1cncn1Cc1ccc(C#N)cc1` [Example 1, 2(S)-n-Butyl-1-[1-(4-cyanobenzyl)-5-imidazolylmethyl]-4-(2,2,2-trifluoroethyl)piperazin-5-one dihydrochloride]: the IC50 is at most 50 µM.

For orientation: IC50 means the concentration that inhibits the measured activity by half.
